Assay results: ChEMBL document CHEMBL3045230, “Synthesis and pharmacological evaluation of novel 4-isopropylthiazole-4-phenyl-1,2,4-triazole derivatives as potential antimicrobial and antitubercular agents” (Med Chem Res, 2013)
In brackets after ≈: the same amount, converted by molar mass.

Assays:
Bacillus subtilis = assay: Antimicrobial activity against Bacillus subtilis ATCC 60511 assessed as growth inhibition after 24 hr by broth dilution assay method; assay type: functional; settings: ATCC 60511, 24 h
Enterococcus faecalis = assay: Antimicrobial activity against […] ATCC 14506 assessed as growth inhibition after 24 hr by broth dilution assay method; assay type: functional; settings: ATCC 14506, 24 h
Saccharomyces cerevisiae = assay: Antimicrobial activity against Saccharomyces cerevisiae ATCC 9763 assessed as growth inhibition after 24 hr by broth dilution assay method; assay type: functional; settings: ATCC 9763, 24 h
Staphylococcus aureus = assay: Antimicrobial activity against Staphylococcus aureus ATCC 11632 assessed as growth inhibition after 24 hr by broth dilution assay method; assay type: functional; settings: ATCC 11632, 24 h
Klebsiella pneumoniae = assay: Antimicrobial activity against Klebsiella pneumoniae ATCC 10031 assessed as growth inhibition after 24 hr by broth dilution assay method; assay type: functional; settings: ATCC 10031, 24 h
Pseudomonas aeruginosa = assay: Antimicrobial activity against Pseudomonas aeruginosa ATCC 10145 assessed as growth inhibition after 24 hr by broth dilution assay method; assay type: functional; settings: ATCC 10145, 24 h
Escherichia coli = assay: Antimicrobial activity against Escherichia coli ATCC 10536 assessed as growth inhibition after 24 hr by broth dilution assay method; assay type: functional; settings: ATCC 10536, 24 h
Candida tropicalis = assay: Antimicrobial activity against Candida tropicalis ATCC 1369 assessed as growth inhibition after 24 hr by broth dilution assay method; assay type: functional; settings: ATCC 1369, 24 h
Aspergillus niger = assay: Antimicrobial activity against Aspergillus niger ATCC 6275 assessed as growth inhibition after 24 hr by broth dilution assay method; assay type: functional; settings: ATCC 6275, 24 h
[1] = (§1) Cytotoxicity against Homo sapiens (human) A549 cells assessed as viable cells at 250 uM by MTT assay in presence of fetal bovine serum; assay type: cell-based; settings: A549 cells, read-out: Activity
[2] = test system: Mycobacterium tuberculosis; assay: Antitubercular activity against Mycobacterium tuberculosis H37Rv assessed as growth inhibition after 21 days by broth dilution assay method; assay type: functional; settings: 504 h
A549 = assay: as §1; assay type: cell-based; settings: a549, 250 µM

| Compound | MIC (Bacillus subtilis) [µg/mL] | MIC (Enterococcus faecalis) [µg/mL] | MIC (Saccharomyces cerevisiae) [µg/mL] | MIC (Staphylococcus aureus) [µg/mL] | MIC (Klebsiella pneumoniae) [µg/mL] | MIC (Pseudomonas aeruginosa) [µg/mL] | MIC (Escherichia coli) [µg/mL] | MIC (Candida tropicalis) [µg/mL] | MIC (Aspergillus niger) [µg/mL] | viability at 250 µM [1] [%] | MIC [2] [µg/mL] | Activity (A549) |
| --- | --- | --- | --- | --- | --- | --- | --- | --- | --- | --- | --- | --- |
| CC(C)c1csc(-c2nnc(SCc3nnc(CCl)o3)n2-c2ccccc2)n1 | 31.2 (≈ 72.2 µM) | 16 (≈ 37 µM) | 62.5 (≈ 144 µM) | 8 (≈ 18.5 µM) | 31.2 (≈ 72.2 µM) | 16 (≈ 37 µM) | 16 (≈ 37 µM) | 125 (≈ 289 µM) | 31.2 (≈ 72.2 µM) | – | – | – |
| CC(C)c1csc(-c2nnc(SCC(=O)NN)n2-c2ccccc2)n1 | 31.2 (≈ 83.4 µM) | 31.2 (≈ 83.4 µM) | 62.5 (≈ 167 µM) | 16 (≈ 42.7 µM) | 8 (≈ 21.4 µM) | 8 (≈ 21.4 µM) | 8 (≈ 21.4 µM) | 31.2 (≈ 83.4 µM) | 31.2 (≈ 83.4 µM) | 50 | 16 (≈ 42.7 µM) | – |
| CC(C)c1csc(-c2nnc(SCc3nnc(-c4ccccc4)o3)n2-c2ccccc2)n1 | 31.2 (≈ 67.8 µM) | 31.2 (≈ 67.8 µM) | 16 (≈ 34.7 µM) | 31.2 (≈ 67.8 µM) | 62.5 (≈ 136 µM) | 31.2 (≈ 67.8 µM) | 125 (≈ 271 µM) | 16 (≈ 34.7 µM) | 31.2 (≈ 67.8 µM) | – | – | – |
| CCOC(=O)CSc1nnc(-c2nc(C(C)C)cs2)n1-c1ccccc1 | 62.5 (≈ 161 µM) | 125 (≈ 322 µM) | 62.5 (≈ 161 µM) | 125 (≈ 322 µM) | 125 (≈ 322 µM) | 62.5 (≈ 161 µM) | 125 (≈ 322 µM) | 125 (≈ 322 µM) | 62.5 (≈ 161 µM) | – | 125 (≈ 322 µM) | – |
| CCn1cc(C(=O)O)c(=O)c2cc(F)c(N3CCNCC3)cc21 [NORFLOXACIN] | ≤ 1 | ≤ 5 | – | ≤ 5 | ≤ 1 | ≤ 5 | ≤ 1 | – | – | – | – | – |
| C/C(=N\NC(=O)CSc1nnc(-c2nc(C(C)C)cs2)n1-c1ccccc1)c1ccc(Cl)cc1 | 125 (≈ 245 µM) | 31.2 (≈ 61.1 µM) | 31.2 (≈ 61.1 µM) | 31.2 (≈ 61.1 µM) | 62.5 (≈ 122 µM) | 31.2 (≈ 61.1 µM) | 16 (≈ 31.3 µM) | 31.2 (≈ 61.1 µM) | 125 (≈ 245 µM) | – | 31.2 (≈ 61.1 µM) | – |
| CC(C)c1csc(-c2nnc(SCc3nnc(-c4ccc(O)cc4)o3)n2-c2ccccc2)n1 | 31.2 (≈ 65.6 µM) | 62.5 (≈ 131 µM) | 31.2 (≈ 65.6 µM) | 31.2 (≈ 65.6 µM) | 125 (≈ 262 µM) | 31.2 (≈ 65.6 µM) | 62.5 (≈ 131 µM) | 31.2 (≈ 65.6 µM) | 31.2 (≈ 65.6 µM) | – | – | – |
| O=C(O)c1cn(C2CC2)c2cc(N3CCNCC3)c(F)cc2c1=O [CIPROFLOXACIN] | ≤ 1 | ≤ 5 | – | ≤ 5 | ≤ 1 | ≤ 5 | ≤ 1 | – | – | – | – | – |
| CC(C)c1csc(-c2nnc(SCC(=O)N/N=C/c3ccc(Cl)cc3)n2-c2ccccc2)n1 | 31.2 (≈ 62.9 µM) | 31.2 (≈ 62.9 µM) | 16 (≈ 32.2 µM) | 62.5 (≈ 126 µM) | 62.5 (≈ 126 µM) | 62.5 (≈ 126 µM) | 31.2 (≈ 62.9 µM) | 31.2 (≈ 62.9 µM) | 31.2 (≈ 62.9 µM) | – | 125 (≈ 251 µM) | – |
| C/C(=N\NC(=O)CSc1nnc(-c2nc(C(C)C)cs2)n1-c1ccccc1)c1ccc(O)cc1 | 62.5 (≈ 127 µM) | 31.2 (≈ 63.4 µM) | 31.2 (≈ 63.4 µM) | 62.5 (≈ 127 µM) | 31.2 (≈ 63.4 µM) | 16 (≈ 32.5 µM) | 16 (≈ 32.5 µM) | 8 (≈ 16.2 µM) | 8 (≈ 16.2 µM) | 50 | 16 (≈ 32.5 µM) | – |
| COc1ccc(/C=N/NC(=O)CSc2nnc(-c3nc(C(C)C)cs3)n2-c2ccccc2)cc1OC | 8 (≈ 15.3 µM) | 12 (≈ 23 µM) | 16 (≈ 30.6 µM) | 8 (≈ 15.3 µM) | 16 (≈ 30.6 µM) | 31.2 (≈ 59.8 µM) | 16 (≈ 30.6 µM) | 31.2 (≈ 59.8 µM) | 16 (≈ 30.6 µM) | – | 8 (≈ 15.3 µM) | – |
| C/C(=N\NC(=O)CSc1nnc(-c2nc(C(C)C)cs2)n1-c1ccccc1)c1ccc(C)cc1 | 31.2 (≈ 63.7 µM) | 62.5 (≈ 127 µM) | 62.5 (≈ 127 µM) | 125 (≈ 255 µM) | 16 (≈ 32.6 µM) | 62.5 (≈ 127 µM) | 125 (≈ 255 µM) | 125 (≈ 255 µM) | 31.2 (≈ 63.7 µM) | – | 62.5 (≈ 127 µM) | – |
| CC(C)c1csc(-c2nnc(SCC(=O)N/N=C/c3ccc(O)cc3)n2-c2ccccc2)n1 | 125 (≈ 261 µM) | 16 (≈ 33.4 µM) | – | 125 (≈ 261 µM) | 16 (≈ 33.4 µM) | 62.5 (≈ 131 µM) | 125 (≈ 261 µM) | 62.5 (≈ 131 µM) | 31.2 (≈ 65.3 µM) | – | 8 (≈ 16.7 µM) | Toxic |
| CC(C)c1csc(-c2nnc(SCC(=O)N/N=C/c3cccc([N+](=O)[O-])c3)n2-c2ccccc2)n1 | 31.2 (≈ 61.6 µM) | 31.2 (≈ 61.6 µM) | 62.5 (≈ 123 µM) | 125 (≈ 246 µM) | 16 (≈ 31.5 µM) | 62.5 (≈ 123 µM) | 31.2 (≈ 61.6 µM) | 31.2 (≈ 61.6 µM) | 125 (≈ 246 µM) | – | 62.5 (≈ 123 µM) | – |
| CC(=O)NNC(=O)CSc1nnc(-c2nc(C(C)C)cs2)n1-c1ccccc1 | 62.5 (≈ 150 µM) | 125 (≈ 300 µM) | 16 (≈ 38.4 µM) | 125 (≈ 300 µM) | 31.2 (≈ 75 µM) | 125 (≈ 300 µM) | 62.5 (≈ 150 µM) | 8 (≈ 19.2 µM) | 8 (≈ 19.2 µM) | – | 62.5 (≈ 150 µM) | – |
| C/C(=N\NC(=O)CSc1nnc(-c2nc(C(C)C)cs2)n1-c1ccccc1)c1ccc([N+](=O)[O-])cc1 | 125 (≈ 240 µM) | 31.2 (≈ 59.9 µM) | 125 (≈ 240 µM) | 31.2 (≈ 59.9 µM) | 31.2 (≈ 59.9 µM) | 62.5 (≈ 120 µM) | 62.5 (≈ 120 µM) | 31.2 (≈ 59.9 µM) | 125 (≈ 240 µM) | – | 62.5 (≈ 120 µM) | – |
| C/C(=N\NC(=O)CSc1nnc(-c2nc(C(C)C)cs2)n1-c1ccccc1)c1ccc(Br)cc1 | 62.5 (≈ 113 µM) | 125 (≈ 225 µM) | 31.2 (≈ 56.3 µM) | 16 (≈ 28.8 µM) | 31.2 (≈ 56.3 µM) | 125 (≈ 225 µM) | 62.5 (≈ 113 µM) | 125 (≈ 225 µM) | 31.2 (≈ 56.3 µM) | – | 31.2 (≈ 56.3 µM) | – |
| CC(C)c1csc(-c2nnc(SCc3nnc(-c4ccc([N+](=O)[O-])cc4)o3)n2-c2ccccc2)n1 | 62.5 (≈ 124 µM) | 31.2 (≈ 61.8 µM) | 62.5 (≈ 124 µM) | 31.2 (≈ 61.8 µM) | 31.2 (≈ 61.8 µM) | 31.2 (≈ 61.8 µM) | 62.5 (≈ 124 µM) | 31.2 (≈ 61.8 µM) | 62.5 (≈ 124 µM) | – | – | – |
| NNC(=O)c1ccncc1 [ISONIAZID] | – | – | – | – | – | – | – | – | – | – | 0.25 (≈ 1.82 µM) | – |
| Cc1ccc(-c2nnc(CSc3nnc(-c4nc(C(C)C)cs4)n3-c3ccccc3)o2)cc1 | 125 (≈ 263 µM) | 31.2 (≈ 65.8 µM) | 125 (≈ 263 µM) | 62.5 (≈ 132 µM) | 62.5 (≈ 132 µM) | 62.5 (≈ 132 µM) | 31.2 (≈ 65.8 µM) | 31.2 (≈ 65.8 µM) | 125 (≈ 263 µM) | – | – | – |
| COc1ccc(/C(C)=N/NC(=O)CSc2nnc(-c3nc(C(C)C)cs3)n2-c2ccccc2)cc1 | 62.5 (≈ 123 µM) | 31.2 (≈ 61.7 µM) | 62.5 (≈ 123 µM) | 31.2 (≈ 61.7 µM) | 250 (≈ 493 µM) | 62.5 (≈ 123 µM) | 125 (≈ 247 µM) | 125 (≈ 247 µM) | 125 (≈ 247 µM) | – | 8 (≈ 15.8 µM) | – |
| CC(C)c1csc(-c2nnc(SCc3nnc(-c4ccc(Cl)cc4)o3)n2-c2ccccc2)n1 | 4 (≈ 8.08 µM) | 8 (≈ 16.2 µM) | 62.5 (≈ 126 µM) | 8 (≈ 16.2 µM) | 62.5 (≈ 126 µM) | 62.5 (≈ 126 µM) | 62.5 (≈ 126 µM) | 125 (≈ 253 µM) | 125 (≈ 253 µM) | 50 | – | – |
| COc1cc(/C=N/NC(=O)CSc2nnc(-c3nc(C(C)C)cs3)n2-c2ccccc2)ccc1O | 16 (≈ 31.5 µM) | 125 (≈ 246 µM) | 16 (≈ 31.5 µM) | 125 (≈ 246 µM) | 8 (≈ 15.7 µM) | 16 (≈ 31.5 µM) | 8 (≈ 15.7 µM) | 62.5 (≈ 123 µM) | 31.2 (≈ 61.4 µM) | – | 31.2 (≈ 61.4 µM) | – |
| OC(Cn1cncn1)(Cn1cncn1)c1ccc(F)cc1F [FLUCONAZOLE] | – | – | ≤ 1 | – | – | – | – | ≤ 1 | ≤ 1 | – | – | – |
